According to ChEMBL document CHEMBL1130768, “DNA cleavage by 7-methylbenzopentathiepin: a simple analog of the antitumor antibiotic varacin” (1998):
In brackets after ≈: the same amount, converted by molar mass. Activity calls are given as the source filed them. The rule behind the calls is not given here.

What was measured:
Candida albicans = assay: Antifungal activity against candida albicans was determined; Active; format: functional, organism-based
HCT-116 = assay: Cytotoxicity against a human colon cancer cell line (HCT116 cells) was reported; format: functional

In the case of `COc1cc(CCN)c2c(c1OC)SSSSS2` [VARACIN], the Activity (Candida albicans) is reported as “Active” and the IC90 (HCT-116) is reported as 0.05 µg/mL (≈ 0.147 µM).
